Measurements as given in paper PMC11277004, “Di- and Triselenoesters—Promising Drug Candidates for the Future Therapy of Triple-Negative Breast Cancer” (International Journal of Molecular Sciences, 2024).

Experiments:
Format in all cases: cell-based, human
Bcl-2 = Bcl-2 protein level by flow cytometry, MCF-7; conditions: 24 h
Experimental: (§1) For this purpose, Akt (PE), Bax (FITC), Bcl-2 (Alexa Fluor® 647), LC3A/B (Alexa Fluor® 488), and p53 (Alexa Fluor® 488) antibodies conjugated to different fluorochromes (all from Cell Signaling Technology, Beverly, MA, USA) were utilized. Each assay was performed according to the manufacturer's protocol available on their website. After incubation with the tested compounds, the cells were centrifuged, resuspended in 4% formaldehyde (100 μL/1 × 10^6 cells), and fixed for 15 min at room temperature. Afterward, to remove the formaldehyde, the cells were washed by centrifugation with excess PBS and the permeabilization step was triggered. For this purpose, ice-cold 90% methanol was added to the pre-chilled cell pellet, gently vortexed, and incubated for 1 h on ice. Later, the cells were washed by centrifugation with excess PBS again, resuspended in 100 μL of 1:100 diluted primary antibody (stain buffer was used for dilution), and incubated for 1 h at room temperature in the dark. After incubation, the cells were washed, resuspended in 300 μL PBS, and immediately tested with a flow cytometer (BD FACSCanto II, BD Biosciences Systems, San Jose, CA, USA; 10,000 events measured). The obtained results were analyzed using the FACSDiva 6.0 software (BD Biosciences Systems, San Jose, CA, USA). In the case of the p53 protein, the MRF values were obtained first during the flow cytometer readout utilizing FACSDiva software and later analyzed using FCS Express 7 (De Novo Software, Pasadena, CA, USA). The equipment calibration was performed using the BD Cytometer Setup and Tracking Beads (BD Biosciences, San Diego, CA, USA).

Bax = Bax protein level by flow cytometry, MCF-7; conditions: 24 h
Experimental: as §1

[1] = Viability (MTT) and DNA biosynthesis, summary statements over the tested cell lines; conditions: human; MTT, 24 h; range over the tested cell lines; read-out: IC50, cytotoxic activity (range over cell lines)
Experimental: The MTT assay was used to determine the cytotoxic effects of the compounds in the study on MCF-7 and MDA-MB-231 breast cancer cells as well as MCF-10A normal human breast epithelial cells based on Carmichael’s method. All cultured cell lines were treated with varied concentrations of the tested compounds in the medium (0.5–5 µM) and incubated for 24 h in an incubator providing optimal conditions for cell culture growth (37 °C temperature, 5% CO2, and 90–95% humidity) in 6-well plates (baseline seeding density: 5 × 10^5 cells/well). After this time, the medium was removed, and the cell monolayer was washed with warm phosphate-buffered saline (PBS) without calcium and magnesium. In the next step, PBS and MTT solution in PBS (5 mg/mL) were added to each well to obtain a final MTT concentration of 0.5 mg/mL, and then the cells were incubated for 4 h (37 °C temperature, 5% CO2, 90–95% humidity). After the incubation period, the contents of each well were removed, 1 mL of DMSO was added to dissolve the formazan, and then the plate with the added DMSO was mixed for 5–10 min on a microplate shaker (Boeco, Hamburg, Germany). Then, 10 µL of Sorensen’s glycine buffer (a solution of 0.1 M glycine and 0.1 M sodium chloride adjusted to pH 10.5 with 0.1 M sodium hydroxide) was added. The absorbance of the obtained solution was immediately measured at a wavelength of λ = 570 nm using a Thermo Scientific Evolution 201 UV–VIS spectrophotometer (Thermo Fisher Scientific, Waltham, MA, USA). The absorbance result obtained in the control cells (without the addition of the tested compounds) was taken as 100%, while the viability of cells incubated with the tested compounds was presented as a percentage of the control value.
The study of the antiproliferative properties (intensity of [^3H]-thymidine incorporation into cell DNA) of the tested derivatives against tested cell lines (MCF-7, MDA-MB-231, MCF-10A) was performed after 24 h incubation with varied concentrations of the tested compounds in the medium (0.5–5 µM) in 6-well plates (baseline seeding density: 5 × 10^5 cells/well). After 24 h the medium was removed, the cells were washed with PBS (Corning, Kennebunk, ME, USA), and a fresh medium was added. […] Radioactivity was measured using the Scintillation Counter 1900 TR, TRI-CARB (Packard, Perkin Elmer, Inc., San Jose, CA, USA). The intensity of DNA biosynthesis in the analyzed cells was expressed in terms of dpm/well. The result of the radioactivity measurement in the control cells (without the addition of tested compounds) was taken as 100%, while the values of cells incubated with the tested compounds were presented as a percentage of the control value.

Row | SMILES | Bcl-2 negative cells ± SD (Bcl-2; MCF-7, 0.5 μM) | Bcl-2 negative cells ± SD (Bcl-2; MCF-7, 1 μM) | Bax positive cells ± SD (Bax; MCF-7, 0.5 μM) | Bax positive cells ± SD (Bax; MCF-7, 1 μM) | IC50 at 24 h [1]
1 | N.N.[Cl][Pt][Cl] [Cisplatin, reference compound] | 2.7 ± 0.2% | 2.7 ± 0.1% | 2.9 ± 0.9% | 3.0 ± 0.8% | –
2 | CC(=O)C[Se]C(=O)c1ccc(C(=O)[Se]CC(C)=O)cc1 [EDAG-1, Se,Se-bis(2-oxopropyl) benzene-1,4-bis(carboselenoate)] | 13.9 ± 0.9% | 38.4 ± 4.0% | 6.1 ± 0.9% | 8.6 ± 1.0% | 410 to 710 nM
3 | CC(=O)C[Se]C(=O)c1cc(C(=O)[Se]CC(C)=O)cc(C(=O)[Se]CC(C)=O)c1 [EDAG-8, Se,Se,Se-tris-(2-oxopropyl) benzene-1,3,5-tris-(carboxyselenoate)] | 45.2 ± 9.3% | 63.6 ± 3.7% | 18.0 ± 1.5% | 32.1 ± 3.1% | 410 to 710 nM
